Results on 16 molecules are retold here after US9868692B2, “Compounds and compositions for intracellular delivery of therapeutic agents” (MODERNATX, Inc., priority 2015, dated 2018).

The nature of data set [1]: Residual lipid level in liver of rats (UPLC-MS quantification). The conditions noted are these: rat; for % Lipid Remaining in liver, 48 h 2 mpk: assuming 300 g rat and 15 g liver; for concentration at 48 h: intravenous. Format: in vivo. Here is the method:
(§1) To pre-weighed tissues, Milli-Q water was added (900 μL water per 100 mg tissue). Tissues were homogenized using an Omni probe homogenizer until uniform. 50 μL of samples and matrix calibration standards were aliquoted into a 96-well plate. 50 μL of blank matrix for matrix blanks and control blanks were aliquoted. 400 μL IS spiking solution were manually added to all samples except matrix blanks. 400 μL of 50:50 ACN:IPA were manually added to matrix blanks. The plate was covered and the samples vortexed and centrifuged for 5 minutes at >3000 rpm. 200 μL of the samples were transferred into a clean 96-well plate for analysis. […] Detection was based on electrospray ionization (ESI) in positive mode using a Sciex API5500 Mass Spectrometer.
(§2) The expression of hEPO in rats intravenously administered a nanoparticle composition at a dose of 0.2 mpk or 2.0 mpk was measured at 6 hours. […] Liver and spleen levels represent the average values calculated for 3 rats in each group.
(§3) The expression of hEPO and lipid levels in the liver and spleen in rats intravenously administered a nanoparticle composition at a dose of 0.2 mpk was measured at various timepoints. […] Lipids were formulated according to the standard MC3 formulation described above.

Data set [2] in a line: Residual lipid level in spleen of rats (UPLC-MS quantification). Format: in vivo. The conditions noted are these: rat. On the procedure:
as §1, §2, §3

Data set [3] can be described thus: Particle size, polydispersity index (and zeta potential) of nanoparticle compositions, Zetasizer Nano ZS. The settings on record: Table 1A formulations. Format: physicochemical. From the text: Nanoparticle compositions may be characterized by a variety of methods. For example, microscopy (e.g., transmission electron microscopy or scanning electron microscopy) may be used to examine the morphology and size distribution of a nanoparticle composition. Dynamic light scattering or potentiometry (e.g., potentiometric titrations) may be used to measure zeta potentials. Dynamic light scattering may also be utilized to determine particle sizes. Instruments such as the Zetasizer Nano ZS (Malvern Instruments Ltd, Malvern, Worcestershire, UK) may also be used to measure multiple characteristics of a nanoparticle composition, such as particle size, polydispersity index, and zeta potential.
A Zetasizer Nano ZS (Malvern Instruments Ltd, Malvern, Worcestershire, UK) can be used to determine the particle size, the polydispersity index (PDI) and the zeta potential of the nanoparticle compositions in 1×PBS in determining particle size and 15 mM PBS in determining zeta potential.

The mark [4] stands for this setting: liver, 0.2 mg/kg, 0.2 mpk, 48 h, average of 3 rats, read-out: Liver level.
[5] abbreviates: liver, 2 mg/kg, 2 mpk, 48 h, average of 3 rats, read-out: Liver level.
The mark [6] stands for this setting: intravenous, 0.2 mg/kg, 0.2 mpk, 48 h, average of 3 rats, read-out: Spleen level.
Setting [7] is: intravenous, 2 mg/kg, 2 mpk, 48 h, average of 3 rats, read-out: Spleen level.
Setting [8] is: liver, iv, 0.2 mg/kg, 0.2 mpk, 48 hours, read-out: Liver level.
[9] abbreviates: liver, iv, 2 mg/kg, 2 mpk, 48 hours, read-out: Liver level.
Where [10] appears, read: iv, 0.2 mg/kg, 0.2 mpk, 48 hours, read-out: Spleen level.
Setting [11] is: iv, 2 mg/kg, 2 mpk, 48 hours, read-out: Spleen level.

In the case of `CCCCCCCCCN(CCO)CCCCCCCC(=O)OC(CCCCCCCC)CCCCCCCC` [Compound 3, Heptadecan-9-yl 8-((2-hydroxyethyl)(nonyl)amino)octanoate], in data set [1] (2 mpk, 48 h), the “% Lipid Remaining in liver, 48 h 2 mpk” value turned out to be 14%.
Consider `CCCCCC/C=C\COC(=O)CCCCCCCN(CCO)CCCCCCCC(=O)OC(CCCCCCCC)CCCCCCCC` [Compound 24, Heptadecan-9-yl (Z)-8_((2-hydroxyethyl)(8-(non-2-en-1-yloxy)-8-oxooctyl)amino)octanoate], for which the “% Lipid Remaining in liver, 48 h 2 mpk” value in data set [1] (2 mpk, 48 h) came out at 0.016%.
Take `CCCCCCCCCCCOC(=O)CCCCCN(CCO)CCCCCCCC(=O)OC(CCCCCCCC)CCCCCCCC` [Compound 25, Heptadecan-9-yl 8-((2-hydroxyethyl)(6-oxo-6-(undecyloxy)hexyl)amino)octanoate]: the concentration at 0.25 h stood at 12000 ng/g in data set [1] (liver, iv, 0.2 mg/kg, 0.2 mpk, 0.25 h) and 4040 ng/g in data set [2] (iv, 0.2 mg/kg, 0.2 mpk, 0.25 h). The concentration at 0.5 h in data set [1] (liver, iv, 0.2 mg/kg, 0.2 mpk, 0.5 h) was 16400 ng/g; in data set [2] (iv, 0.2 mg/kg, 0.2 mpk, 0.5 h), 6880 ng/g. Moreover, the concentration at 1 h turned out to be 17900 ng/g in data set [1] (liver, iv, 0.2 mg/kg, 0.2 mpk, 1 h) and 8590 ng/g in data set [2] (iv, 0.2 mg/kg, 0.2 mpk, 1 h). Moreover, the concentration at 2 h in data set [1] (liver, iv, 0.2 mg/kg, 0.2 mpk, 2 h) was found to be 11700 ng/g; in data set [2] (iv, 0.2 mg/kg, 0.2 mpk, 2 h), 13700 ng/g. In addition, the concentration at 4 h was 6690 ng/g in data set [1] (liver, iv, 0.2 mg/kg, 0.2 mpk, 4 h) and 20400 ng/g in data set [2] (iv, 0.2 mg/kg, 0.2 mpk, 4 h). Also, the concentration at 8 h in data set [1] (liver, iv, 0.2 mg/kg, 0.2 mpk, 8 h) was 2360 ng/g; in data set [2] (iv, 0.2 mg/kg, 0.2 mpk, 8 h), 10800 ng/g. Further, the concentration at 24 h in data set [1] (liver, iv, 0.2 mg/kg, 0.2 mpk, 24 h) amounted to 199 ng/g; in data set [2] (iv, 0.2 mg/kg, 0.2 mpk, 24 h), 2020 ng/g. The concentration at 48 h in data set [1] (liver, iv, 0.2 mg/kg, 0.2 mpk, 48 h, read-out: Lipid level in liver) was determined as 12000 ng/g; in data set [2] (iv, 0.2 mg/kg, 0.2 mpk, 48 h, read-out: Lipid level in spleen), 1550 ng/g.
For `CCCCCCCCCOC(=O)CCCN(CCO)CCCCCCCC(=O)OC(CCCCCCCC)CCCCCCCC` [Compound 26, Heptadecan-9-yl 8-((2-hydroxyethyl)(4-(nonyloxy)-4-oxobutyl)amino) octanoate], the “% Lipid Remaining in liver, 48 h 2 mpk” value in data set [1] (2 mpk, 48 h) is on record as 20%.
`CCCCCCCCC(CCCCCCCC)OC(=O)CCCCCCCN(CCO)CCCCCCCC(=O)OCC1CC1CCCCCC` (stereo not drawn) [Compound 28, Heptadecan-9-yl 8-((8-((2-hexylcyclopropyl)methoxy)-8-oxooctyl)(2-hydroxyethyl)amino)octanoate]: the concentration at 48 h in data set [1] (setting [4]) is 49.6 ng/g; in data set [1] (setting [5]) it was 665 ng/g; in data set [2] (setting [6]) it was 268 ng/g; in data set [2] (setting [7]) it was 551 ng/g.
With `CCCCCCCCCOC(=O)CCCCCCCN(CCO)CCCCCCCOC(=O)C(CCCCCCCC)CCCCCCCC` [Compound 30, 7-((2-Hydroxyethyl)(8-(nonyloxy)-8-oxooctyl)amino)heptyl 2-octyldecanoate], the “% Lipid Remaining in liver, 48 h 2 mpk” value in data set [1] (2 mpk, 48 h) was less than 0.01%.
In the case of `CCCCCCCCCOC(=O)CCCCCCCN(CCO)CCCCCCCC(=O)OC(CCCCC)CCCCCCCC` (stereo not drawn) [Compound 33, nonyl 8-((2-hydroxyethyl)(8-oxo-8-(tetradecan-6-yloxy)octyl)amino) octanoate], the concentration at 48 h in data set [1] (setting [5]) was found to be 103 ng/g; in data set [2] (setting [6]) it was 115 ng/g; in data set [2] (setting [7]), 287 ng/g.
`CCCCCCCCC(C)OC(=O)CCCCCCCN(CCO)CCCCCCCC(=O)OC(CCCCCCCC)CCCCCCCC` (stereo not drawn) [Compound 48, decan-2-yl 8-((8-(heptadecan-9-yloxy)-8-oxooctyl)(2-hydroxyethyl)amino)octanoate]: the concentration at 48 h in data set [1] (setting [8]) was found to be 5450 ng/g; in data set [1] (setting [9]), 34500 ng/g; in data set [2] (setting [10]), 0.31; in data set [2] (setting [11]), 0.21.
`CCCCCCCCC(CCC)OC(=O)CCCCCCCN(CCO)CCCCCCCC(=O)OC(CCCCCCCC)CCCCCCCC` (stereo not drawn) [Compound 50, dodecan-4-yl 8-((8-(heptadecan-9-yloxy)-8-oxooctyl)(2-hydroxyethyl)amino)octanoate]: the concentration at 48 h was 5820 ng/g in data set [1] (setting [8]), 79200 ng/g in data set [1] (setting [9]), 0.22 in data set [2] (setting [10]) and 0.17 in data set [2] (setting [11]).
For `CCCCCCCCC(CCCCCCCC)OC(=O)CCCCCCCN(CCO)CCCC(=O)OCCCCCC` [Compound 53, heptadecan-9-yl 8-((4-(hexyloxy)-4-oxobutyl)(2-hydroxyethyl)amino) octanoate], the concentration at 48 h in data set [1] (setting [4]) came out at 4810 ng/g; in data set [1] (setting [5]), 47000 ng/g; in data set [2] (setting [6]), 1180 ng/g; in data set [2] (setting [7]), 201000 ng/g.
The like results for `CCCCCCCCC(CCCCCCCC)OC(=O)CCCCCCCN(CCO)CCCC(=O)OCCCCCCC` [Compound 54, heptadecan-9-yl 8-((4-(heptyloxy)-4-oxobutyl)(2-hydroxyethyl)amino) octanoate] were, in that order, 6070 ng/g, 56100 ng/g, 6360 ng/g and 49400 ng/g.
The molecule `CCCCCCCCC(CCCCCCCC)OC(=O)CCCCCCCN(CCO)CCCC(=O)OC(CCCCC)CCCCCCCC` (stereo not drawn) [Compound 71, Heptadecan-9-yl 8-((2-hydroxyethyl)(4-oxo-4-(tetradecan-6-yloxy)butyl)amino)octanoate] yielded a PDI in data set [3] of 0.11.
On the same count and under the same terms, the same measure for `CCCCCCCCCOC(=O)CCCCCCCN(CCCCCCCC(=O)OC(CCCCCCCC)CCCCCCCC)CCCNC(=O)NC` [Compound 112, Heptadecan-9-yl 8-((3-(3-methylureido)propyl)(8-(nonyloxy)-8-oxooctyl)amino)octanoate]: 0.12.
In the case of `CCCCCCCCCOC(=O)CCCCCCCN(CCO)CCCCCCC(=O)OCC(CCCCCCCC)CCCCCCCC` [Compound 143, Nonyl 8-((2-hydroxyethyl)(7-((2-octyldecyl)oxy)-7-oxoheptyl)amino)octanoate], the PDI in data set [3] came out at 0.19.
Take `CCCCCCCCCOC(=O)CCCCCCCN(CCCCCCCC(=O)OC(CCCCCCCC)CCCCCCCC)CCCN/C(=N/C#N)N(C)C` [Compound 168, Heptadecan-9-yl (Z)-8-((3-(2-cyano-3,3-dimethylguanidino)propyl)(8-(nonyloxy)-8-oxooctyl)amino)octanoate]: in data set [3], the PDI is 0.1.
`CCCCCCCCCOC(=O)CCCCCCCN(CCCCCCCC(=O)OC(CCCCCCCC)CCCCCCCC)CCCOC(=O)NC` [Compound 175, Heptadecan-9-yl 8-((3-((methylcarbamoyl)oxy)propyl)(8-(nonyloxy)-8-oxooctyl)amino)octanoate]: the PDI in data set [3] is given as 0.2.
